From patent US6750348B1, “Chemokine receptor binding heterocyclic compounds” (AnorMED, Inc., priority 1999, dated 2004)

Tests used:
Format in all cases: cell-based
[1] = system: RANTES induced Ca flux in U87.CCR5 cells; experiment: Inhibition of RANTES induced Ca flux in U87.CCR5 cells (FLIPR); details: U-87-CCR5, at 20 μg/mL, read-out: inhibited RANTES induced Ca flux
Description: Loading dye: Fluo-3, AM (Molecular Probes F-1241) is dissolved in anhydrous DMSO and stored frozen in aliquots. To increase the solubility of the dye in the loading medium, 10% (w/v) pluronic acid (Molecular Probes F-127) is added to the Fluo-3 stock solution immediately before use.
HBSS+20 mM Hepes buffer+0.2% BSA, pH 7.4. HBSS 10× [(w/o phenol red and sodium bicarbonate (Gibco 14 065-049)]; Hepes buffer 1M (Gibco 15 630-056), BSA (Sigma A3675). The flux buffer is vacuum-filtered and stored refrigerated for a maximum of 5 days. Before use in the experiment, the buffer is warmed at 37° C. in a waterbath.
The test compounds were diluted in flux buffer and added to 4 wells of a black microplate (4 parallel measurements per compound).
The chemokines are diluted in flux buffer to concentrations that are 4-fold higher than the desired concentrations required for stimulation of the cells (i.e. 2.5 nM for SDF-1α and 0.6 nM for RANTES). The chemokines were added to untreated 96-well Sero well compound plates (International Medical, Sterilin code 611F96). In the negative control well's (baseline monitoring), flux buffer is added instead of chemokine. As a positive control to check for dye loading efficiency, 20 μM digitonin (final concentration) was also included. The agonist plate was incubated in the FLIPR (37° C.) for 15-30 min.
The FLIPR settings (camera exposure time and laser power) are adjusted to obtain initial fluorescence values between 8,000 and 10,000 units. After monitoring a 20 second-baseline, the agonist (chemokine) (50 μL) is added by automatic pipettor with black pipette tips. Fluorescence is measured simultaneously in all wells of the microplate every 2 seconds (first 2 min) and thereafter every 6 seconds (additional 2 min). The average ca-flux measured in each set of 4 identical wells (one test compound) was calculated by the FLIPR software.
U87.CCR5 cells were seeded into the black microplates (Costar 3603) on the day before the experiment. The culture medium was removed from the cells and 100 μL of loading medium (DMEM+10% FBS+4 μM Fluo-3, AM) was added to each well and the plate was incubate at 37° C. for 45 min. The loading medium was then removed an the cells were washed twice with flux buffer using the CELL WASH microplate washer (Labsystems) followed by incubation in flux buffer for 10 min. at room temperature (the washing procedure was repeated twice). Finally, the wash buffer was removed from the microplate wells and 150 μL of the test compound, diluted in flux buffer to the desired concentration. The microplate was then incubated in the FLIPR drawer for 10 min. prior to testing. Measurements were performed as described above.
The compounds of the current invention were tested for inhibition of RANTES induced Ca flux in U87.CCR5 cells.

[2] = system: HIV-1 NL4.3 or IIIB; experiment: Inhibition of HIV-1 (NL4.3 or IIIB) replication in MT-4 cells (MTT); details: Human immunodeficiency virus 1, IIIB, MT4, read-out: EC50, inhibition of HIV-1 NL4.3 or IIIB replication
Procedure, shortened: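 CXCR4-tropic virus infected MT-4 cells at MOI 0.01 (100× CCID50) across a range of compound concentrations, with cytotoxicity run in parallel. Viable cells counted by MTT after 5 days. EC50 is the concentration protecting 50% of infected cells from viral cytopathicity.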

[3] = system: HIV-1 BaL (CCR5 using); experiment: Inhibition of HIV-1 (BaL) replication in PHA-stimulated PBMC's (MTT); details: Human immunodeficiency virus 1, BAL, MTT assay
Description: Compounds were tested for their ability to inhibit HIV-1 replication in MT-4 cells or PBMC's (peripheral blood mononucleocytes) using published procedures (for example, see: Labrosse et al. J. Virol. 1998, 6381-6388; Simmons et al. J. Virol. 1998, 8453-8457; Donzella et al. Nature Medicine 1998, 72-77; Schols et al. J. Exp. Med. 1997, 1383-1388; De Clercq et al. Antiviral Res. 1997, 147-156; and Bridger et al. U.S. patent application Ser. No. 09/111,895). In addition to the above references, experimental methods for performing anti-viral assays can also be found in: Bridger et al. J. Med. Chem. 1995, 38, 366-378; Bridger et al. J. Med. Chem. 1996, 39, 109-119; Bridger et al. U.S. Pat. No. 5,698,546; Bridger et al. U.S. Pat. No. 5,583,131; Bridger et al. U.S. Pat. No. 5,817,807; De Clercq et al. Antimicrob. Agents and Chemother. 1994, 38, 668-674.
The HIV-1 strain BaL is M-tropic (macrophage tropic) strain that exclusively uses CCR5 as a co-receptor for entry into cells. PBMC's (from healthy donors) express all chemokine receptors including CXCR4 and CCR5.

[4] = system: SDF-1α induced Ca flux in SUP-T1 cells; experiment: Inhibition of SDF-1α induced Ca flux in SUP-T1 cells (FLIPR); details: Homo sapiens, at 20 μg/mL, read-out: inhibited SDF-1α induced Ca flux

| EC50 [2] [µg/mL] | EC50 [3] [µg/mL] | SMILES | inhibition at 20 µg/mL [1] [%] | inhibition at 20 µg/mL [4] [%] |
| --- | --- | --- | --- | --- |
| < 20 | < 20 | N[C@@H]1CCC[C@H]1N(Cc1ccc(CNCc2ccccn2)cc1)C1CCCc2cccnc21 (relative stereo) [Example 71, N-(2-pyridinylmethyl)-N′-(trans-2-aminocyclopentyl)-N′-(5,6,7,8-tetrahydro-8-quinolinyl)-1,4-benzenedimethanamine] | > 20 |  |
| < 20 | < 20 | Fc1cccc2c1CC(NCc1ccc(CNCc3ccccn3)cc1)CC2 (stereo not drawn) [Example 43, N-(2-pyridinylmethyl)-N′-(8-Fluoro-1,2,3,4-tetrahydro2-naphthalenyl)-1,4-benzenedimethanamine] |  | > 20 |
| < 20 | < 20 | c1ccc(CCN(Cc2ccc(CNCc3ccccn3)cc2)C2CCCc3cccnc32)nc1 (stereo not drawn) [Example 66, N-(2-pyridinylmethyl)-N′-[2-(2-pyridinyl)ethyl]-N′-(5,6,7,8-tetrahydro-8-quinolinyl)-1,4-benzenedimethanamine] |  | > 20 |
| < 20 | < 20 | c1ccc(CNCc2ccc(CN(Cc3ccccn3)CC3CCCc4cccnc43)cc2)nc1 (stereo not drawn) [Example 88, N,N′-bis(2-pyridinylmethyl)-N′-[(5,6,7,8-tetrahydro-8-quinolinyl)methyl]-1,4-benzenedimethanamine] |  | > 20 |

Second part, the compound before the results:

| SMILES | EC50 [2] [µg/mL] | EC50 [3] [µg/mL] | inhibition at 20 µg/mL [1] [%] | inhibition at 20 µg/mL [4] [%] |
| --- | --- | --- | --- | --- |
| c1ccc(CNCc2ccc(CNc3cccc4ccccc34)cc2)nc1 [Example 5, N-(2-pyridinylmethyl)-N′-(1-naphthalenyl)-1,4-benzenedimethanamine] |  | < 20 | > 20 |  |
| c1ccc(-c2ccc3c(n2)C(NCc2ccc(CNCc4ccccn4)cc2)CCC3)cc1 (stereo not drawn) [Example 11, N-(2-pyridinylmethyl)-N′-(2-phenyl-5,6,7,8-tetrahydro-8-quinolinyl)-1,4-benzenedimethanamine] | < 20 | < 20 | > 20 |  |
| c1ccc(CNCc2ccc(CN(Cc3ccco3)C3CCCc4cccnc43)cc2)nc1 (stereo not drawn) [Example 29, N-(2-pyridinylmethyl)-N′-[2-furanylmethyl]-N′-(5,6,7,8-tetrahydro-8-quinolinyl)-1,4-benzenedimethanamine] | < 20 | < 20 |  | > 20 |
| c1ccc(CNCCN(Cc2ccc(CNCc3ccccn3)cc2)C2CCCc3cccnc32)cc1 (stereo not drawn) [Example 30, N-(2-pyridinylmethyl)-N′-[2-[(phenylmethyl)amino]ethyl]-N′-(5,6,7,8-tetrahydro-8-quinolinyl)-1,4-benzenedimethanamine] | < 20 | < 20 | > 20 | > 20 |
| CC1c2ccccc2CCC1NCc1ccc(CNCc2ccccn2)cc1 (stereo not drawn) [Example 37, N-(2-pyridinylmethyl)-N′-(1-methyl-1,2,3,4-tetrahydro-2-naphthalenyl)-1,4-benzenedimethanamine] | < 20 | < 20 |  | > 20 |
